Side chains are listed from the residue outwards. Peptide text beside a SMILES is read from it. * marks the point of attachment. X1 = NCCCC[C@H](N)CN1CCC[C@H]1C(=O)*
Target: T1, cell-surface expressed nucleolin (Homo sapiens, UniProt P19338)
T1 construct: endogenous in cells; host or cells: HeLa P4 cells
Assay: cell-based

T1 sequence (P19338 whole entry): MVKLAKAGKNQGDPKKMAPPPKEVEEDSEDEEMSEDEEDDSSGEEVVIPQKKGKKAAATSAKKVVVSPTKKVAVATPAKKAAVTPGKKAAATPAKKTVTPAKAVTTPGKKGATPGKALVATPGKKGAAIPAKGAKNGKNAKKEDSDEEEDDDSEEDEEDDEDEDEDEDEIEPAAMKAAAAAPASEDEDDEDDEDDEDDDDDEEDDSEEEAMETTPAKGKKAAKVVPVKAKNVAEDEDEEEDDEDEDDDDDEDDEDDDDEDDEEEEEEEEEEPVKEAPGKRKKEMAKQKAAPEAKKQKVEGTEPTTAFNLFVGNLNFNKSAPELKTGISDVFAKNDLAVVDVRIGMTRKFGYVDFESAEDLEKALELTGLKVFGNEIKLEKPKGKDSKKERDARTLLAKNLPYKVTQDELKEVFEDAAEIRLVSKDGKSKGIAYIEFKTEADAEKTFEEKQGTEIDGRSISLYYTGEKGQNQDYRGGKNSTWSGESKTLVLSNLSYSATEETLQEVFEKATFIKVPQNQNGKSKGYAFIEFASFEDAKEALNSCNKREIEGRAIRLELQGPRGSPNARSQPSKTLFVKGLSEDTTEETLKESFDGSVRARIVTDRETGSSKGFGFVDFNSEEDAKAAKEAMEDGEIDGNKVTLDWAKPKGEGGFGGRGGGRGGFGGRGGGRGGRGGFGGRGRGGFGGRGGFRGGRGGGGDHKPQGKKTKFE

Compound: CC(=O)N[C@@H](CCCCNC(=O)[C@H](CCCNC(=N)N)NC(=O)[C@@H]1CCCN1C[C@@H](N)CCCCN)C(=O)N[C@@H](C)C(=O)N[C@@H](CCCCNC(=O)[C@H](CCCNC(=N)N)NC(=O)[C@@H]1CCCN1C[C@@H](N)CCCCN)C(=O)N1CCC[C@H]1C(=O)NCC(=O)N[C@@H](CCCCNC(=O)[C@H](CCCNC(=N)N)NC(=O)[C@@H]1CCCN1C[C@@H](N)CCCCN)C(=O)N[C@@H](C)C(=O)N[C@@H](CCCCNC(=O)[C@H](CCCNC(=N)N)NC(=O)[C@@H]1CCCN1C[C@@H](N)CCCCN)C(=O)N1CCC[C@H]1C(=O)NCC(=O)N[C@@H](CCCCNC(=O)[C@H](CCCNC(=N)N)NC(=O)[C@@H]1CCCN1C[C@@H](N)CCCCN)C(=O)N[C@@H](C)C(=O)N[C@@H](CCCCNC(=O)[C@H](CCCNC(=N)N)NC(=O)[C@@H]1CCCN1C[C@@H](N)CCCCN)C(=O)N1CCC[C@H]1C(=O)NCC(N)=O [Nucant 7] (Ac-K([Arg-X1])AK([Arg-X1])PGK([Arg-X1])AK([Arg-X1])PGK([Arg-X1])AK([Arg-X1])PG-NH2)
- IC50: < 100 nM
- inhibition at 0.8 µM (HeLaP4, read-out: inhibitory activity): > 95%

Reference: EP2033655B1 (priority 2007, dated 2009)
